Test results as given in ChEMBL document CHEMBL1201862, “PubChem BioAssay data set” (2004).
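Compound exposure: 48 hours, 5 concentrations, 96-well plates. Abbreviation: GI50, concentration required for 50% inhibition of growth.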 Calls of active or inactive are those of the source. Cut-off read from the data, not from the text of the source: active = GI50 up to about 1.1 µM and inactive = higher.

Tests used:
Experiment in all cases: NCI tumour cell line growth inhibition, 48 h
[1] = system: M19-MEL
[2] = system: DMS-114
[3] = system: LXFL 529
[4] = system: SNB-78
[5] = system: BT-549
[6] = system: DMS-273
[7] = system: HOP-18
[8] = system: RXF 631
[9] = system: XF498

Measured: GI50

O=C1C(=O)N(c2cccc(C(F)(F)F)c2)C(=O)C(=O)C1c1nc2ccccc2s1
inactive: [1] 45.1 µM | [2] 45.8 µM | [3] 52 µM | [4] > 100 µM | [5] > 100 µM | [6] > 100 µM | [7] 63.7 µM | [8] 88.1 µM | [9] > 100 µM

CCOC(=O)C1=C(OC(OCC)C(CC)[Se]c2ccccc2)CCC1 (centres undefined)
inactive: [1] 14.4 µM | [2] 4.62 µM | [3] 18.7 µM | [4] 24.5 µM | [6] 13.2 µM | [7] 23.1 µM | [8] 10.3 µM | [9] 23.1 µM

CSc1nc(NC2OC(COC(C)=O)C(OC(C)=O)C(OC(C)=O)C2OC(C)=O)c(/N=C\C=N/c2c(NC3OC(COC(C)=O)C(OC(C)=O)C(OC(C)=O)C3OC(C)=O)nc(SC)n(C)c2=O)c(=O)n1C (centres undefined)
inactive: [1] > 100 µM | [2] > 100 µM | [3] > 100 µM | [4] 31.7 µM | [5] > 65.6 µM | [6] > 100 µM | [7] > 67.1 µM | [8] 51.8 µM | [9] 15.6 µM

CCOC(=O)NC(=O)c1cn(C2OC(COC(=O)CCCCCCCCC(=O)OCC3OC(n4cc(C(=O)NC(=O)OCC)c(=O)[nH]c4=O)C(O)C3O)C(O)C2O)c(=O)[nH]c1=O (centres undefined)
inactive: [1] > 100 µM | [2] > 100 µM | [3] > 100 µM | [4] > 100 µM | [6] > 100 µM | [7] > 100 µM | [8] > 100 µM | [9] > 100 µM
